Consider two compounds from ChEMBL document CHEMBL1275264, “The GABA(A) receptor as a target for photochromic molecules” (Bioorg Med Chem, 2010).

Usually Ki stands for a dissociation constant, usually derived from enzyme kinetics or from competition with a known ligand.

In test [1] the target is T1, GABA-A receptor; alpha-5/beta-3/gamma-2 (Homo sapiens, UniProt P18507+P28472+P31644).
T1 sequence (P18507 whole entry): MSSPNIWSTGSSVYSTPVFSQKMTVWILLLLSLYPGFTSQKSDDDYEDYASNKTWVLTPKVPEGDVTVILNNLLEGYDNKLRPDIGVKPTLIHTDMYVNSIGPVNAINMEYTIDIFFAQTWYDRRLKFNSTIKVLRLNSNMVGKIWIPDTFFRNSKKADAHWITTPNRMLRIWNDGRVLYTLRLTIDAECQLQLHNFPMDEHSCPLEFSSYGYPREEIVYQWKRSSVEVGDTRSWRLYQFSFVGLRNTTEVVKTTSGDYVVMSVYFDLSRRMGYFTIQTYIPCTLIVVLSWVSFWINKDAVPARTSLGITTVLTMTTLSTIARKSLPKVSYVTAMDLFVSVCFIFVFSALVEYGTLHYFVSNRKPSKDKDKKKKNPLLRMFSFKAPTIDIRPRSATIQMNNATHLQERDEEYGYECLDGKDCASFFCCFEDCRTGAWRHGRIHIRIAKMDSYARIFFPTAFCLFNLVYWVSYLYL
T1 sequence (P28472 whole entry): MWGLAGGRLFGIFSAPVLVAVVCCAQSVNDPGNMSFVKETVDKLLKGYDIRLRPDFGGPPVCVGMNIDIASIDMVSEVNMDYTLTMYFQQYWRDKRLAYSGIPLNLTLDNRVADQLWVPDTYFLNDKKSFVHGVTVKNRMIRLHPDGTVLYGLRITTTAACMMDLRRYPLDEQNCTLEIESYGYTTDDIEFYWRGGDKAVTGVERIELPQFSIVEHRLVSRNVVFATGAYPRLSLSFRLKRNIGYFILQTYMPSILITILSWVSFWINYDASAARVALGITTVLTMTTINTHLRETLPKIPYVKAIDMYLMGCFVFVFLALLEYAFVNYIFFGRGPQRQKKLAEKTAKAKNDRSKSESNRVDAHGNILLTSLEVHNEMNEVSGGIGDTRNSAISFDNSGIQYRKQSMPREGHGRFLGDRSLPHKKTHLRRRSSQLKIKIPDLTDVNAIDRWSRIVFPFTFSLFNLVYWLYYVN
T1 sequence (P31644 whole entry): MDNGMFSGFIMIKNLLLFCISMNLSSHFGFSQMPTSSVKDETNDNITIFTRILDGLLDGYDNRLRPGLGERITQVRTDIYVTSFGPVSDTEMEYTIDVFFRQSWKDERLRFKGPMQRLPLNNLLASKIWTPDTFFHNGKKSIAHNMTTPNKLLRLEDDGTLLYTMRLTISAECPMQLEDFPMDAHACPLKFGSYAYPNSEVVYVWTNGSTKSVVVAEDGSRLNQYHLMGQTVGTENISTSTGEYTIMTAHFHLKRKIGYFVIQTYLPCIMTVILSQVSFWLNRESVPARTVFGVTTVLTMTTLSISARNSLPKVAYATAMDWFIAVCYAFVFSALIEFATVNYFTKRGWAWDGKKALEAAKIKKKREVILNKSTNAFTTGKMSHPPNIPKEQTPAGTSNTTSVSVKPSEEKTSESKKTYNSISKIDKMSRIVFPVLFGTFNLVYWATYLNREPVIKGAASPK
As to the kind of experiment: Binding affinity to human recombinant GABA alpha-5-beta-3-gamma-2 receptor. The test is classed as protein-complex assay.

Test [2] deals with GABA A receptor alpha-4/beta-3/gamma-2 (Homo sapiens, UniProt P18507+P28472+P48169). As to the kind of experiment: Binding affinity to human recombinant GABA alpha-4-beta-3-gamma-2 receptor. It counts as protein-complex assay.
GABA A receptor alpha-4/beta-3/gamma-2, sequence (P48169 whole entry, one chain of several): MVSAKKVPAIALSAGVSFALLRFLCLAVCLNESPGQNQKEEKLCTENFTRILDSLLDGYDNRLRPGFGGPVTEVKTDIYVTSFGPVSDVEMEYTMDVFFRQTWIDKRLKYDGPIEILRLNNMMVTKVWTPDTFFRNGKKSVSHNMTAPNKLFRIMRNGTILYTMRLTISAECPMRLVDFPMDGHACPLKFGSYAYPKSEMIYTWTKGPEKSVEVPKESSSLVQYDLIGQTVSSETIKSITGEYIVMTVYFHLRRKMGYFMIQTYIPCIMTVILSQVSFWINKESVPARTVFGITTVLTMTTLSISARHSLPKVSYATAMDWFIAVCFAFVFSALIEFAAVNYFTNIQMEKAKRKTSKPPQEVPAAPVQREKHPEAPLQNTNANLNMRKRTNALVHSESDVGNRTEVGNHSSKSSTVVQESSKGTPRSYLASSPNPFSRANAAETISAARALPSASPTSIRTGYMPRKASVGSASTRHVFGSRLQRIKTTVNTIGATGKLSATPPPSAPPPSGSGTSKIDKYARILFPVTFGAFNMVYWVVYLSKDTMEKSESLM

Molecules are shown by their SMILES. Some results are limits rather than exact numbers.

With `COCc1ncn2c1CN(C)C(=O)c1cc(Cl)ccc1-2`, the Ki was above 0.3 µM in test [1] and 0.0388 µM in test [2].
Taken in the same sequence, the figures for `CC(=O)c1ncn2c1CN(C)C(=O)c1cc(Cl)ccc1-2` were 29.5 µM and 2.61 µM.
